{
  "source": "patent US10695330B2",
  "about": "“Methods of treatment” (Global Blood Therapeutics, Inc., priority 2015, dated 2020)",
  "key": {"Hb": {"target": "T1, Hb (Mus musculus, UniProt P01942)", "T1 construct": "from tissue; host or cells: whole blood (red blood cells) of dosed C57BL / C57BL/6J mice", "T1 sequence (P01942 2-142 limits assumed)": "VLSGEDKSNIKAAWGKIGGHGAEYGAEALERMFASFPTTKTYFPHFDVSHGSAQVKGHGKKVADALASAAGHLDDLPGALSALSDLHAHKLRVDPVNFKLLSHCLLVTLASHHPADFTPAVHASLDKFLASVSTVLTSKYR", "T1 sequence (P02088 2-147 partner limits assumed)": "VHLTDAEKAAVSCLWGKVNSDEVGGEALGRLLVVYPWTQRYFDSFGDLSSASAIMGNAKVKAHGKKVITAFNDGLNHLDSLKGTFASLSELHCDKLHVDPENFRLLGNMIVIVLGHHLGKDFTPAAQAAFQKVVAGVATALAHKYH", "test": "LPS-induced acute lung injury mouse model: PK/PD (Hb occupancy, hemoximetry)", "assay_type": "in vivo", "details": "LPS-induced ALI mice", "method": "Adult, 8-10-week-old male C57BL/6J mice (Jackson Laboratory, Bar Harbor, Me.), were anesthetized with isoflurane, injected with 100 μg LPS (Sigma, St. Louis, Mo.) in 100 μL PBS by direct intratracheal injection. After 24 hours, mice were given Compound 1 (70 or 140 mg/kg formulated in dimethylacetamide, polyethylene glycol 400 (PEG400) and 40% cavitron in a ratio of 1:5:4, respectively) or vehicle only (5 μL/g) by oral gavage 2 hours prior to placement in a hypoxia chamber. Mice were exposed to either 10 or 5% O2 for 4 hours. Oxygen saturation (SaO2) was measured with a pulse oximeter (STARR Life Sciences, Oakmont, Pa.) at baseline and hourly during hypoxic exposure. During hypoxic exposure, mice were monitored continuously and a moribund check was done every 15 minutes. Time to death was assessed by time to moribund status. Mice were determined to be moribund if they could not right themselves when placed in a supine position.\nBlood was collected by cardiac puncture in the hypoxic chamber. Blood gases were measured using the i-STAT portable analyzer within the hypoxic environment (Abaxis, Union City, Calif.). Remaining blood samples were used for hemoximetry and pharmacokinetic analysis. For sample collection, mice were euthanized with pentobarbital overdose. A bronchoaleveolar lavage (BAL) was performed with 900 uL Saline. Blood was collected by retro orbital puncture, and then spun to collect plasma. Lungs were removed and flash frozen. All samples were stored at −80° C. until further study. BAL inflammatory cell counts and differentials were determined manually after staining cytospins with DiffQuik. BAL protein was measured using a Pierce BCA Protein Assay Kit (Thermo Scientific, Waltham, Mass.).\nHemoximetry was used to determine the PD effect of Compound 1 in whole blood from dosed mice as described above. Representative oxygen equilibrium curves (OECs) of whole blood obtained from mice dosed with Compound 1 (blue and red lines) or vehicle only (black line) are shown in FIG. 3A."}, "[1]": {"system": "mice with bleomycin-induced fibrosis", "test": "Bleomycin induced mouse model of hypoxemia and pulmonary fibrosis", "assay_type": "in vivo", "method": "Forty-eight C57B/L6 male mice aged 7-8 weeks were obtained from Simonsen Laboratory, Gilroy, Calif. The mice were ear tagged and weighed prior to the start of the study. The animals were distributed into four groups with twelve animals in each group. Body weights of all mice were recorded daily during the study. Animals in groups 2, 3 and 4 were administered 3 U/kg bleomycin sulfate USP (Teva Pharmaceuticals) via oropharyngeal route […] (see Walters, D. M. and S. R. Kleeberger (2008). “Mouse models of bleomycin-induced pulmonary fibrosis.” Curr Protoc Pharmacol Chapter 5: Unit 5 46.) Animals in group 1 were administered normal saline via oropharyngeal route.\nCompound 1 (formulated in dimethylacetamide: polyethylene glycol 400 (PEG400): 40% cavitron at a 1:5:4 ratio) was administered at either low dose (first day 50 mg/kg followed by 40 mg/kg daily) or high dose (first day 150 mg/kg followed by 85 mg/kg daily) via oral gavage to bleomycin treated mice once daily from day 8 to day 15. Animals in group 1 were administered vehicle via oral gavage. The dosing volume was 200 μL. The study animals were sacrificed on day 15 at 4 hours post final dose.\nSamples for hemoximetry and pharmacokinetics (PK) were taken 4 hours following the last dose of the dosing regimen. BAL fluid was collected from the lungs of the animals by lavaging the lung with 1 ml Hanks balanced salt media (HBSS). Lungs were harvested from each animal and weighed. They were then inflated by ˜0.5 mL of 10% NBF and fixed in a formalin container for subsequent histopathological analysis.\nHypoxia is a feature of IPF, and oxygen saturation measurements are often used clinically to evaluate the presence and severity of hypoxia. Responses to hypoxia in mice treated with Compound 1 were first evaluated by measuring arterial oxygen saturation (SaO2). On day 7 and 14 after bleomycin or saline instillation, 50 μL of arterial blood from the tail artery were used for measurement of arterial oxygen saturation (SaO2) using whole blood GEM OPL co-oximeter (Instrumentation Laboratory, MA). An additional aliquot of 100 μL of blood were collected from tail artery and arterial blood gases using the i-STAT Handheld Blood Analyzer (ABBOTT) were measured using CG4+ cartridges. For each mouse, SaO2 and arterial oxygen tension (pO2) were measured. […] In contrast, arterial oxygenation levels of vehicle treated mice further declined throughout the study (FIG. 4C). The arterial blood gases (ABG) were also analyzed on day 7 and day 14 (FIG. 4C). Data are expressed as means±SEM. […] In vehicle-treated bleomycin mice the pO2 reached a further decline at day 14.\nIn this bleomycin model, mice develop extensive pulmonary fibrosis as well as pulmonary inflammation; thus, the effect of Compound 1 treatment on the phenotype of pulmonary inflammatory cells was examined. The BAL fluid was centrifuged at 1,000 rpm at 4° C. for 5 minutes. The BAL cell pellets were suspended in 2 mls of 1× Pharmalyse buffer (BD Bioscience) to lyse the RBCs. PBS+2% FBS were added to stop the lysis reaction and cells centrifuged again. Leukocytes in the cell pellet were counted using a hemocytometer and the trypan blue exclusion method.\nPulmonary fibrosis was induced by administering mice a single dose of bleomycin. Collagen content of was determined by quantifying total soluble collagen in the BALF supernatant using the Sircol collagen dye binding assay according to the manufacturer's instructions (Biocolor Ltd, Carrick Fergus, UK).\nLungs were harvested from each animal and weighed at Day 15.\nThe histopathological analysis was conducted at Seventh Wave Laboratories, Chesterfield, Mo. The lung samples were processed and embedded with all lobes from each mouse in one paraffin block. Coronal sections through the four major lobes were stained with Masson's Trichrome. For each animal, consecutive lung fields were examined in a raster pattern using a 20× objective lens and a 10× or 40× ocular lens (200× or 800×). […]"}},
  "data": [
    {"smiles": "O=Cc1c(O)cccc1OC[C@@H]1CCCCN1C(=O)c1cccnc1", "note": "[Compound 1, (S)-2-hydroxy-6-((1-nicotinoylpiperidin-2-yl)methoxy)benzaldehyde]", "values": [
      {"measurement": "Hb occupancy", "setting": "Hb; 70 mg/kg oral", "result": "~19", "unit": "%"},
      {"measurement": "Hb occupancy", "setting": "Hb; 140 mg/kg oral", "result": "~27", "unit": "%"},
      {"measurement": "Hb O2 affinity (left-shift in the OEC) in whole blood from dosed mice", "setting": "Hb; 70 or 140 mg/kg oral, vs vehicle", "result": "dose-dependent increase in Hb O2 affinity relative to control"},
      {"measurement": "arterial oxygen tension (pO2)", "setting": "[1]; day 14", "result": "tendency for an increase pO2 or prevention of further decline of pO2"},
      {"measurement": "arterial oxygen saturation (SaO2)", "setting": "[1]; day 14, after seven consecutive days of treatment, low and high dose", "result": "return toward control values"},
      {"measurement": "improvement of overall Ashcroft scores", "setting": "[1]; day 15, P<0.01", "result": "approximately 50%"},
      {"measurement": "collagen protein (total soluble collagen in BALF supernatant, Sircol)", "setting": "[1]; day 15, P<0.05", "result": "significant reduction in collagen protein in the lungs"},
      {"measurement": "total inflammatory cells recovered in BAL fluid", "setting": "[1]; day 15, P<0.05", "result": "significant reduction in total inflammatory cells recovered in BAL fluid"},
      {"measurement": "lung weight", "setting": "[1]; day 15, vs bleomycin vehicle control, P<0.01", "result": "significantly heavier than lungs from Compound 1-treated mice"},
      {"measurement": "collagen deposition (Masson's trichrome histology)", "setting": "[1]; day 15 lung sections, low and high dose", "result": "diminished collagen deposition"}
    ]}
  ]
}
